# Measured values published in US11510410B2, “Pediculicidal composition” (DR. REDDY'S LABORATORIES, S.A., priority 2013, dated 2022).
# Columns and labels:
# [1] = Safety of single application in subjects (Example 8); assay type: in vivo, human; conditions: single application at two dose levels 0.37% w/w and 0.74% w/w
# Description: (§1) One hundred and forty two (142) pediatric and adult subjects, three (3) years of age or older, with an active head lice infestation were enrolled in the study. This study assessed the efficacy of a single application of 2 different dose levels (0.37% w/w and 0.74% w/w of 5,5′-dimethyl-2,2′-dipyridyl) compared to a vehicle control. The formulations were prepared as described in Table 9. Subjects were treated for 10 minutes with a lotion containing one of two dose levels of 5,5′-dimethyl-2,2′-dipyridyl or the vehicle lotion. After 10 minutes the lotion was rinsed out of the subjects hair with water and towel dried. At day 1, 7 and 14 post treatment the hair was examined for the presence of live lice. If any live lice were detected on any of the three visits the subject was deemed a treatment failure. The primary endpoint to the study was that proportion of subjects who were lice free at day 14.
# [2] = Safety of single application in Phase 3 studies (Example 9); assay type: in vivo, human; conditions: single application 0.74% w/w
# Description: A total of seven hundred and four (704) pediatric and adult subjects, six (6) months of age or older, with an active head lice infestation were enrolled in two separate Phase 3 studies. These studies assessed the efficacy of a single application of 0.74% w/w abametapir compared to a vehicle control (refer Table 9, above). Subjects were treated for 10 minutes with a lotion containing abametapir or the vehicle lotion alone. After 10 minutes the lotion was rinsed out of the subjects hair with water and towel dried. At day 1, 7 and 14 post treatment the hair was examined for the presence of live lice. If any live lice were detected on any of the three visits the subject was deemed a treatment failure. The primary endpoint to the study was that proportion of index subjects (youngest member of the household with at least 3 live lice at the commencement of the study) who were lice free at all follow-up visits through day 14.
# [3] = system: Pediculus humanus capitis eggs; assay: Effect of formulated 5,5′-dimethyl-2,2′-dipyridyl on egg hatching (Example 3); conditions: for Stage of development: eggs with eye development / Stage of development: eggs with no eye development / Stage of development: eggs hatched: 10 eggs
# Description: Gravid female lice were permitted to lay eggs over a 24 hour period. The eggs were counted, inspected under a light microscope and all eggs that appeared undamaged were allocated to one of two treatment groups. One group of 10 eggs was exposed to 5,5′-dimethyl-2,2′-dipyridyl in a formulation (52-06-01), while the second group of 10 eggs was exposed to the formulation only (vehicle, 52-06-02) Table 2. The two formulations were as follows: […]
# Following a 10 minute exposure to either the 52-06-01 or […] formulations the eggs were subsequently washed for 1 minute with water (˜37° C.) before being placed at 31° C. in a humid incubator and monitored over time for signs of development specifically of the eyes and through to subsequent hatching.
# [4] = system: Pediculus humanus capitis eggs; assay: Ex vivo ovicidal efficacy, double-blind vehicle-controlled randomized clinical trial (Example 7)
# Description: In this study the formulation as listed in Table 9 containing 0.74% 5,5′-dimethyl-2,2′-dipyridyl, (abametapir), was evaluated in a double-blind, vehicle-controlled randomized clinical trial. The primary aim of the trial was to evaluate the ovicidal efficacy of a single application of abametapir lotion 0.74% w/w intended for the treatment of head lice. The primary end point was the proportion of hatched eggs pre-treatment relative to proportion of hatched eggs post-treatment for the formulation containing abametapir and vehicle treated eggs following a 14 day incubation.
# This ex vivo study involved identifying subjects with an active head lice infestation (active being defined as the presence of at least 3 live lice and at least 10 undamaged eggs). A minimum of 5 undamaged eggs were collected both pre and post treatment and their predicted viability assessed under a dissecting microscope before being incubated in a temperature and humidity controlled incubator (30° C. and 60% RH) for 14 days to provide adequate time for the eggs to hatch. After 14 days eggs were assessed as either hatched, unhatched, or partially hatched.
# [5] = system: Pediculus humanus humanus eggs; assay: In vitro ovicidal efficacy, 0.74% w/w composition versus vehicle (Example 6); conditions: compared to the vehicle formulation
# Description: This formulation including 0.5% BHT was also evaluated for its ovicidal activity.
# [6] = system: head lice Pediculus humanus capitis infestation; assay: In vivo efficacy in subjects with head lice infestation, two dose levels (Example 8); conditions: single 10 minute application, human subjects 3 years or older
# Description: as §1
# [7] = Day 1 of observation, formulation 52-06-01 (0.38%), 10 minute exposure
# [8] = Day 4, formulation 52-06-01, 10 minute exposure
# [9] = Day 5, formulation 52-06-01, 10 minute exposure
# [10] = Day 6, formulation 52-06-01, 10 minute exposure
# [11] = Day 7, formulation 52-06-01, 10 minute exposure
# [12] = Day 12, formulation 52-06-01, 10 minute exposure
smiles,measurement,setting,value
"Cc1ccc(-c2ccc(C)cn2)nc1 [5,5′-dimethyl-2,2′-dipyridyl]",safety results,[1],safe and well tolerated
same,safety results,[2],safe and well tolerated
same,Stage of development: eggs with eye development,[3]; [7],1 eye development
same,Stage of development: eggs with no eye development,[3]; [7],9 no eye development
same,Stage of development: eggs hatched,[3]; [8],1 hatched
same,Stage of development: eggs with eye development,[3]; [8],1 eye development
same,Stage of development: eggs with no eye development,[3]; [8],8 no eye development
same,Stage of development: eggs hatched,[3]; [9],1 hatched
same,Stage of development: eggs with eye development,[3]; [9],1 eye development
same,Stage of development: eggs with no eye development,[3]; [9],8 no eye development
same,Stage of development: eggs hatched,[3]; [10],1 hatched
same,Stage of development: eggs with eye development,[3]; [10],1 eye development
same,Stage of development: eggs with no eye development,[3]; [10],8 no eye development
same,Stage of development: eggs hatched,[3]; [11],1 hatched
same,Stage of development: eggs with eye development,[3]; [11],1 eye development
same,Stage of development: eggs with no eye development,[3]; [11],8 no eye development
same,Stage of development: eggs hatched,[3]; [12],1 hatched
same,Stage of development: eggs with eye development,[3]; [12],1 eye development
same,Stage of development: eggs with no eye development,[3]; [12],8 no eye development
same,eggs in the treatment arm failed to hatch,"[3]; overall, ten eggs, 0.37% w/w formulation, 10 minute exposure",90%
same,Egg hatch Post-treatment,"[4]; eggs collected after single application, 14 day incubation, N = 25",0%
same,Egg hatch Pre-treatment,"[4]; eggs collected pre-treatment (baseline), 14 day incubation, N = 25",93.3%
same,Total absolute reduction in hatch rate (CI 95%),[4]; generalized estimating equation model,92.9%
same,The treatment difference in the absolute reduction of hatch rates (abametapir minus Vehicle),[4]; p < 0.0001,50.6%
same,ovicidal efficacy (eggs treated failed to hatch),"[4]; post-treatment, 14 day incubation",100%
same,ovicidal activity (in words),[5],significant ovicidal activity
same,subjects with treatment success (lice free at day 14),[6]; 0.37% w/w lotion,67.4%
same,subjects with treatment success (lice free at day 14),[6]; 0.74% w/w lotion,85.7%
